In brackets after ≈: the same amount, converted by molar mass.
Experiments:
Staphylococcus aureus = test: Antibacterial activity against Staphylococcus aureus KCTC-1916 after 24 hrs by twofold dilution method; type: functional; conditions: KCTC-1916, 24 h
Tyrosinase [1] = target: T1, Tyrosinase (Agaricus bisporus, UniProt O42713)
T1 sequence (O42713 whole entry): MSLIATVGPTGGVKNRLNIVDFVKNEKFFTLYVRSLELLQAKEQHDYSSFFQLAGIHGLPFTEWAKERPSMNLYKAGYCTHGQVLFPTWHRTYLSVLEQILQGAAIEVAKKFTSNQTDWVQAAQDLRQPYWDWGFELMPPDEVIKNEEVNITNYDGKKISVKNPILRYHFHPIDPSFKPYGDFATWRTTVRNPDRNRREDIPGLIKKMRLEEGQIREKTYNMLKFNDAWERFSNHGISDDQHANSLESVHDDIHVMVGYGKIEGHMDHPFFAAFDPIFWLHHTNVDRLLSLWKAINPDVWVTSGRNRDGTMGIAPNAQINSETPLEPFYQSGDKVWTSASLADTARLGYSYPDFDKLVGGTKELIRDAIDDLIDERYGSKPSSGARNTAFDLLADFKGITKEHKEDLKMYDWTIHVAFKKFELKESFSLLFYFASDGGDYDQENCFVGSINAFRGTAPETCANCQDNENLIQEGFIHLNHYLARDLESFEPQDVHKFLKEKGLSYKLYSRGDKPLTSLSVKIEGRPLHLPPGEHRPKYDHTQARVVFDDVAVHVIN
Description: Inhibition of mushroom tyrosinase using L-DOPA as substrate after 2 mins by spectrophotometry

Escherichia coli = test: microbe, parasite or virus in culture; conditions: KCTC-1924, 24 h
Description: Antibacterial activity against Escherichia coli KCTC-1924 after 24 hrs by twofold dilution method

Tyrosinase [2] = target: T1, Tyrosinase; test: Competitive inhibition of mushroom tyrosinase using L-DOPA as substrate after 2 mins by Lineweaver-Burk plot

MIC (Staphylococcus aureus) [µg/mL] | IC50 (Tyrosinase [1]) [µM] | IC50 [µg/mL] | MIC (Escherichia coli) [µg/mL] | Ki (Tyrosinase [2]) [µM] | SMILES
32 (≈ 95.7 µM) | > 299 | > 100 |  |  | COc1ccc(C2Cc3c(C(C)=O)c(O)c4ccccc4c3O2)cc1 (stereo unspecified)
32 (≈ 101 µM) | > 314 | 77.62 (≈ 244 µM) | 2 (≈ 6.28 µM) |  | CC(=O)c1c2c(c3ccccc3c1O)OC(C)(c1ccccc1)C2 (stereo unspecified)
 | 107 | > 100 |  |  | CCO[C@H]1Oc2c(c(C(C)=O)c(O)c3ccccc23)[C@@H]1C (relative stereo)
32 (≈ 107 µM) | 198 | 6.3 (≈ 21 µM) |  |  | CC(=O)c1c2c(c3ccccc3c1O)OC(OCC(C)C)C2 (stereo unspecified)
0.5 (≈ 1.75 µM) | > 349 | 62.51 (≈ 218 µM) | 32 (≈ 112 µM) |  | CCO[C@@H]1Oc2c(c(C(C)=O)c(O)c3ccccc23)[C@@H]1C (relative stereo)

Second part, the compound before the results:

SMILES | MIC (Staphylococcus aureus) [µg/mL] | IC50 (Tyrosinase [1]) [µM] | IC50 [µg/mL] | MIC (Escherichia coli) [µg/mL] | Ki (Tyrosinase [2]) [µM]
CCCCOC1Cc2c(C(C)=O)c(O)c3ccccc3c2O1 (stereo unspecified) | 8 (≈ 26.6 µM) | 232 | 5.01 (≈ 16.7 µM) | 0.5 (≈ 1.66 µM) | 
CC(=O)c1c2c(c3ccccc3c1O)O[C@H]1OCCC[C@@H]21 (relative stereo) | 0.5 (≈ 1.76 µM) | 176 | > 100 | 32 (≈ 113 µM) | 
CCCOC1Cc2c(C(C)=O)c(O)c3ccccc3c2O1 (stereo unspecified) | 0.5 (≈ 1.75 µM) | 31.1 | 3.33 (≈ 11.6 µM) | 0.5 (≈ 1.75 µM) | 11.2
CCOC1Cc2c(C(C)=O)c(O)c3ccccc3c2O1 (stereo unspecified) | 0.5 (≈ 1.84 µM) | 305 | 25.11 (≈ 92.2 µM) | 16 (≈ 58.8 µM) | 
COC1(C)Cc2c(C(C)=O)c(O)c3ccccc3c2O1 (stereo unspecified) | 0.5 (≈ 1.84 µM) | > 367 | 31.47 (≈ 116 µM) | 16 (≈ 58.8 µM) | 
CC(=O)c1c2c(c3ccccc3c1O)O[C@H]1OCC[C@@H]21 (relative stereo) | 8 (≈ 29.6 µM) | > 370 | > 100 | 2 (≈ 7.4 µM) | 

Reference: ChEMBL document CHEMBL3351650, “Anti-tyrosinase, antioxidant, and antibacterial activities of novel 5-hydroxy-4-acetyl-2,3-dihydronaphtho[1,2-b]furans” (Eur J Med Chem, 2014)
